What was measured:
[1] = test system: Parental (Ba/F3); experiment: Ba/F3 cell proliferation inhibition; assay type: cell-based; settings: BaF3; 72 hours, Cell Counting Kit-8
In short: (§1)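 GI50 derived from CCK-8 absorbance at 450 nm (2 h development), expressed relative to DMSO vehicle. Cells (parental or T315I-Bcr-Abl Ba/F3, 1×10^4/well) received nine threefold-diluted concentrations, final 0 to 10 μM, for 72 h at 37 °C.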

[2] = test system: T315I-Bcr-Abl (Ba/F3); experiment: Ba/F3 cell proliferation inhibition; assay type: cell-based; settings: BaF3; 72 hours, Cell Counting Kit-8
In short: as §1

[3] = oral pharmacokinetic test; assay type: in vivo, SD rats; settings: SD, plasma; rat, 10 mg/Kg PO, vehicle A (NMP:PEG400=5:95)
Procedure: To evaluate the pharmacokinetic properties in vivo, oral pharmacokinetic test was performed with the compounds of Comparative Examples 1 and 4 and Examples 1 and 4 using mice and rats, and the PK parameters are shown in Table 10.
ICR mice (6-7 weeks old) and SD rats (6-7 weeks old) were used for the test. The fasted group was fasted about 16 hours before oral administration, and the fed group was fasted about 4 hours before oral administration. The test drug for oral administration was used by dissolving the drug in a vehicle at a concentration of 1 mg/mL for use, and blood samples were collected (time point: 0.25, 0.5, 1, 2, 4, 8, 12, 24, 32, n=3) from the heart (mouse, 500 μL/time point) or jugular vein (rat, 120 μL/time point). Blood was centrifuged at 12,000 G at 4° C. for 2 minutes to separate plasma, and stored at −80° C. until analysis. • Vehicle A (NMP:PEG400=5:95) • Vehicle B (0.5% methyl cellulose) 6-2. Sampling and Pretreatment
To 20 μl of plasma, 180 μl of acetonitrile (including internal standard) was added. The mixture was vortexed and centrifuged for 5 minutes at 15,000 rpm at 4° C. The supernatant obtained after centrifugation was analyzed by LC-MS/MS.
PK parameters were calculated with a non-compartmental analysis model using Phoenix WinNonlin 6.4 version (Pharsight, USA) program.

[4] = test system: Luc_Ba/F3 T315I-Bcr-Abl cell line; experiment: in vivo pharmacological activity, blood cancer mouse model; design: species or system nude mice; settings: for day after the administration on which all subjects died (FIG. 3): vehicle group: day 21
Procedure: After the mice were adapted to an animal facility for 1 week, the Luc_Ba/F3 T315I-Bcr-Abl cell line emitting luciferase was transplanted into the caudal vein at the density of 5×10^6/animal. Group separation was performed 3 days after the cell line transplantation. On the day of the group separation, 10 mice were randomly assigned to each group of 5 groups so that the luminescence values were equal after luminescence measurement using IVIS spectrum-CT optical imaging equipment.
In addition, the body weight and survival rate of each experimental group were monitored.
Statistical analysis was performed using GraphPad Prism 8, and the statistical significance of the survival rate was confirmed using unpaired t test and log-rank (Mantel-Cox) test.

| Compound | GI50 [1] [nM] | GI50 [2] [nM] | AUC(0-t) [3] [ng·h/mL] | Cmax [3] [ng/mL] | half-life [3] [h] | day after the administration on which all subjects died (FIG. 3) ([4]; 25 mg/kg oral once a day for 10 days) [days] | day after the administration on which all subjects died (FIG. 3) ([4]; 50 mg/kg oral once a day for 10 days) [days] | day after the administration on which all subjects died (FIG. 3) ([4]; 100 mg/kg oral once a day for 10 days) [days] | dose dependence of luminescence signal (FIG. 2) ([4]; 25, 50, 100 mg/kg oral once a day for 10 days) | luminescence values in optical images compared to the vehicle group (FIG. 1) ([4]; all treated groups, oral once a day for 10 days, images days 0, 4, 11, 18) | luminescence signals emitted from blood cancer cells compared to the vehicle group (FIG. 2) ([4]; day 18 after administration, 25, 50, 100 mg/kg oral) |
| --- | --- | --- | --- | --- | --- | --- | --- | --- | --- | --- | --- |
| Cc1cn(-c2cc(NC(=O)c3cc(C#Cc4cnc5c(Nc6cnn(C)c6)cccn45)c(C)cc3F)cc(C(C)(C)C#N)c2)cn1 [Example 1, N-(3-(2-cyanopropane-2-yl)-5-(4-methyl-1H-imidazol-1-yl)phenyl)-2-fluoro-4-methyl-5-((8-((1-methyl-1H-pyrazol-4-yl)amino)imidazo[1,2-a]pyridin-3-yl)ethynyl)benzamide] | > 5000 | < 50 | 15900 | 2000 | 3.3 | 31 | 32 | 35 | decreased dose-dependently | weak luminescence values | weak luminescence signals |
| Cc1cn(-c2cc(NC(=O)c3cc(C#Cc4cnc5c(Nc6cnn(C)c6)cccn45)c(C)cc3F)cc(C(F)(F)F)c2)cn1 [Example 4, 2-fluoro-4-methyl-N-(3-(4-methyl-1H-imidazol-1-yl)-5-(trifluoromethyl)phenyl)-5-((8-((1-methyl-1H-pyrazol-4-yl)amino)imidazo[1,2-a]pyridin-3-yl)ethynyl)benzamide] | > 5000 | < 50 | – | – | – | – | – | – | – | – | – |

Reference: patent US12673945B2, “3-((8-((1H-pyrazol-4-yl)amino)imidazo[1,2-a]pyridin-3-yl)ethinyl)-n-phenylbenzamide derivative, method for preparing same, and pharmaceutical composition containing same as active ingredient for prevention or treatment of cancer” (DAEGU-GYEONGBUK MEDICAL INNOVATION FOUNDATION, priority 2020, dated 2026)
